≈ marks a conversion by molar mass, not a printed value.
What was measured:
Type in all cases: functional
[1] = test system: Staphylococcus aureus; experiment: In vitro antibacterial activity against Staphylococcus aureus A20700 was determined
[2] = test system: Staphylococcus epidermidis; experiment: In vitro antibacterial activity against Staphylococcus epidermidis A25441 was determined
[3] = test system: Staphylococcus aureus; experiment: In vitro antibacterial activity against Staphylococcus aureus A9537 was determined

Compound	MIC [1] [µg/mL]	MIC [2] [µg/mL]	MIC [3] [µg/mL]
COC1C(OC(=O)c2ccco2)C(O)C(Oc2ccc3c(O)c(NC(=O)c4ccccc4)c(=O)oc3c2C)OC1(C)C (stereo not drawn)	8 (≈ 13.8 µM)	8 (≈ 13.8 µM)	8 (≈ 13.8 µM)
COC1C(OC(=O)c2[nH]cnc2C)C(O)C(Oc2ccc3c(O)c(NC(=O)c4ccccc4)c(=O)oc3c2C)OC1(C)C.Cc1ccc(S(=O)(=O)O)cc1 (stereo not drawn)	16	8	16
COC1C(OC(=O)c2ccc(C)[nH]2)C(O)C(Oc2ccc3c(O)c(NC(=O)c4ccccc4)c(=O)oc3c2C)OC1(C)C (stereo not drawn)	0.13 (≈ 0.219 µM)	0.13 (≈ 0.219 µM)	0.13 (≈ 0.219 µM)
COC1C(OC(=O)c2cccn2C)C(O)C(Oc2ccc3c(O)c(NC(=O)c4ccccc4)c(=O)oc3c2C)OC1(C)C (stereo not drawn)	8 (≈ 13.5 µM)	8 (≈ 13.5 µM)	2 (≈ 3.37 µM)
COC1C(OC(=O)c2c(C)ncn2Cc2ccccc2)C(O)C(Oc2ccc3c(O)c(NC(=O)c4ccccc4)c(=O)oc3c2C)OC1(C)C (stereo not drawn)	4 (≈ 5.85 µM)	2 (≈ 2.93 µM)	8 (≈ 11.7 µM)
COC1C(OC(=O)c2ccc(C)s2)C(O)C(Oc2ccc3c(O)c(NC(=O)c4ccccc4)c(=O)oc3c2C)OC1(C)C (stereo not drawn)	4 (≈ 6.56 µM)	8 (≈ 13.1 µM)	0.03 (≈ 0.0492 µM)
